Source: US10696693B2, “Fused imidazole derivatives as TGF-beta inhibitors” (Rigel Pharmaceuticals, Inc., priority 2014, dated 2020)
Where two headings read alike, the source gives them in different places.

Tests used:
GDF8 = experiment: AlphaScreen SureFire p-SMAD3 (Ser423/425) assay, GDF8-stimulated cells; assay type: cell-based; conditions: Mus musculus
Outline: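 Lysate (5 μL) went into 384-well shallow plates with 5 μL of Reaction Buffer, Activation Buffer and AlphaScreen Acceptor bead mix. Plates were sealed, kept dark and shaken for 2 hours at room temperature. Donor beads in dilution buffer (2 μL) were added for another 1½ hours, and p-SMAD3 signal was read on a Synergy-4 or Enspire reader.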

TGF-β = experiment: AlphaScreen SureFire p-SMAD3 (Ser423/425) assay, TGF-β-stimulated cells; assay type: cell-based; conditions: Mus musculus
Outline: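 The p-SMAD-3 (Ser423/425) SureFire assay measured phosphorylation of endogenous SMAD-3 in cell lysates. Cells were plated overnight in collagen-coated plates, exposed to three-fold serially diluted compounds for about 10 minutes, then stimulated with TGFβ. Lysates (5 μL) received acceptor bead mix for 2 hours, then donor beads for 1½ hours before AlphaScreen reading.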

[1] = MPC-11, read-out: GDF8: inhibition of GDF8 signaling, GDF pSMAD (MPC11), p-SMAD3 (Ser423/425) AlphaScreen in cell lysate, GDF8 stimulation
[2] = MPC-11, read-out: TGF-β: inhibition of TGF-β signaling, TGF-β pSMAD (MPC-11), p-SMAD3 (Ser423/425) AlphaScreen in cell lysate, TGF-β stimulation
[3] = MPC-11, p-SMAD3 (Ser423/425) AlphaScreen in cell lysate, MPC11, GDF8 stimulation, read-out: GDF8: inhibition of GDF8 signaling, GDF pSMAD (MPC11)
[4] = p-SMAD3 (Ser423/425) AlphaScreen in cell lysate, MPC-11, TGF-β stimulation, read-out: TGF-β: inhibition of TGF-β signaling, TGF-β pSMAD (MPC-11)

| IC50 (GDF8; [3]) | IC50 (TGF-β; [4]) | SMILES | IC50 (GDF8; [1]) | IC50 (TGF-β; [2]) |
| --- | --- | --- | --- | --- |
| 100 to 1000 nM | > 1000 nM | Fc1ccc(-c2nc3n(c2-c2ccc4cn[nH]c4c2)CCC3)cc1F [Compound 206, 6-(2-(3,4-difluorophenyl)-6,7-dihydro-5H-pyrrolo[1,2-a]imidazol-3-yl)-1H-indazole] |  |  |
| 100 to 1000 nM | 100 to 1000 nM | Fc1ccc(-c2nc3n(c2-c2ccc4ncsc4c2)CCC3)cc1F [Compound 207, 6-(2-(3,4-difluorophenyl)-6,7-dihydro-5H-pyrrolo[1,2-a]imidazol-3-yl)benzo[d]thiazole] |  |  |
| 100 to 1000 nM | > 1000 nM | Fc1ccc(-c2nc3n(c2-c2ccc4nccnc4c2)CCC3)cc1F [Compound 208, 6-(2-(3,4-difluorophenyl)-6,7-dihydro-5H-pyrrolo[1,2-a]imidazol-3-yl)quinoxaline] |  |  |
| 100 to 1000 nM | > 1000 nM | Fc1cccc(-c2nc3n(c2-c2ccc4ncccc4c2)CCC3)c1 [Compound 209, 6-(2-(3-fluorophenyl)-6,7-dihydro-5H-pyrrolo[1,2-a]imidazol-3-yl)quinoline] |  |  |
| 100 to 1000 nM | > 1000 nM | Fc1ccccc1-c1nc2n(c1-c1ccc3ncccc3c1)CCC2 [Compound 210, 6-(2-(2-fluorophenyl)-6,7-dihydro-5H-pyrrolo[1,2-a]imidazol-3-yl)quinoline] |  |  |
| 100 to 1000 nM | 100 to 1000 nM | Fc1ccc(-c2nc3n(c2-c2ccc4ncccc4c2)CCC3)c(F)c1 [Compound 211, 6-(2-(2,4-difluorophenyl)-6,7-dihydro-5H-pyrrolo[1,2-a]imidazol-3-yl)quinoline] |  |  |
| > 1000 nM | > 1000 nM | Fc1cccc(F)c1-c1nc2n(c1-c1ccc3[nH]ncc3c1)CCC2 [Compound 212, 5-(2-(2,6-difluorophenyl)-6,7-dihydro-5H-pyrrolo[1,2-a]imidazol-3-yl)-1H-indazole] |  |  |
| > 1000 nM | > 1000 nM | Fc1cccc(F)c1-c1nc2n(c1-c1ccc3cn[nH]c3c1)CCC2 [Compound 213, 6-(2-(2,6-difluorophenyl)-6,7-dihydro-5H-pyrrolo[1,2-a]imidazol-3-yl)-1H-indazole] |  |  |
| > 1000 nM | > 1000 nM | Fc1cccc(F)c1-c1nc2n(c1-c1ccc3nccnc3c1)CCC2 [Compound 215, 6-(2-(2,6-difluorophenyl)-6,7-dihydro-5H-pyrrolo[1,2-a]imidazol-3-yl)quinoxaline] |  |  |
| > 1000 nM | > 1000 nM | Fc1cccc(F)c1-c1nc2n(c1-c1ccc3ncccc3c1)CCC2 [Compound 216, 6-(2-(2,6-difluorophenyl)-6,7-dihydro-5H-pyrrolo[1,2-a]imidazol-3-yl)quinoline] |  |  |
| 100 to 1000 nM | 100 to 1000 nM | Fc1cc(F)c(-c2nc3n(c2-c2ccc4cn[nH]c4c2)CCC3)cc1F [Compound 217, 6-(2-(2,4,5-trifluorophenyl)-6,7-dihydro-5H-pyrrolo[1,2-a]imidazol-3-yl)-1H-indazole] |  |  |
| < 50 nM | 50 to 100 nM | Fc1cc(F)c(-c2nc3n(c2-c2ccc4ncsc4c2)CCC3)cc1F [Compound 218, 6-(2-(2,4,5-trifluorophenyl)-6,7-dihydro-5H-pyrrolo[1,2-a]imidazol-3-yl)benzo[d]thiazole] |  |  |
| < 50 nM | 100 to 1000 nM | Fc1cc(F)c(-c2nc3n(c2-c2ccc4nccnc4c2)CCC3)cc1F [Compound 219, 6-(2-(2,4,5-trifluorophenyl)-6,7-dihydro-5H-pyrrolo[1,2-a]imidazol-3-yl)quinoxaline] |  |  |
| 50 to 100 nM | 100 to 1000 nM | Fc1cc(F)c(-c2nc3n(c2-c2ccc4[nH]ncc4c2)CCC3)cc1F [Compound 220, 5-(2-(2,4,5-trifluorophenyl)-6,7-dihydro-5H-pyrrolo[1,2-a]imidazol-3-yl)-1H-indazole] |  |  |
| 100 to 1000 nM | > 1000 nM | Fc1ccc(F)c(-c2nc3n(c2-c2ccc4[nH]ncc4c2)CCC3)c1F [Compound 221, 5-(2-(2,3,6-trifluorophenyl)-6,7-dihydro-5H-pyrrolo[1,2-a]imidazol-3-yl)-1H-indazole] |  |  |
| 100 to 1000 nM | 100 to 1000 nM | Fc1ccc(F)c(-c2nc3n(c2-c2ccc4ncsc4c2)CCC3)c1F [Compound 222, 6-(2-(2,3,6-trifluorophenyl)-6,7-dihydro-5H-pyrrolo[1,2-a]imidazol-3-yl)benzo[d]thiazole] |  |  |
| > 1000 nM | > 1000 nM | Fc1cccc(-c2nc3n(c2-c2ccc4c(c2)OCO4)CCC3)c1 [Compound 223, 3-(benzo[d][1,3]dioxol-5-yl)-2-(3-fluorophenyl)-6,7-dihydro-5H-pyrrolo[1,2-a]imidazole] |  |  |
| 100 to 1000 nM | > 1000 nM | Fc1ccc(-c2nc3n(c2-c2ccc4nccnc4c2)CCC3)c(F)c1F [Compound 224, 6-(2-(2,3,4-trifluorophenyl)-6,7-dihydro-5H-pyrrolo[1,2-a]imidazol-3-yl)quinoxaline] |  |  |

The remaining lines, values behind:

| SMILES | IC50 (GDF8; [3]) | IC50 (TGF-β; [4]) | IC50 (GDF8; [1]) | IC50 (TGF-β; [2]) |
| --- | --- | --- | --- | --- |
| Clc1cccc(-c2nc3n(c2-c2ccc4ncsc4c2)CCC3)c1 [Compound 191, 6-(2-(3-chlorophenyl)-6,7-dihydro-5H-pyrrolo[1,2-a]imidazol-3-yl)benzo[d]thiazole] |  |  | < 50 nM | 100 to 1000 nM |
| Clc1cccc(-c2nc3n(c2-c2ccc4nccnc4c2)CCC3)c1 [Compound 192, 6-(2-(3-chlorophenyl)-6,7-dihydro-5H-pyrrolo[1,2-a]imidazol-3-yl)quinoxaline] |  |  | 50 to 100 nM | 100 to 1000 nM |
| Fc1cccc(-c2nc3n(c2-c2ccc4[nH]ncc4c2)CCC3)c1 [Compound 193, 5-(2-(3-fluorophenyl)-6,7-dihydro-5H-pyrrolo[1,2-a]imidazol-3-yl)-1H-indazole] |  |  | 100 to 1000 nM | > 1000 nM |
| Fc1cccc(-c2nc3n(c2-c2ccc4cn[nH]c4c2)CCC3)c1 [Compound 194, 6-(2-(3-fluorophenyl)-6,7-dihydro-5H-pyrrolo[1,2-a]imidazol-3-yl)-1H-indazole] |  |  | 100 to 1000 nM | > 1000 nM |
| Fc1cccc(-c2nc3n(c2-c2ccc4ncsc4c2)CCC3)c1 [Compound 195, 6-(2-(3-fluorophenyl)-6,7-dihydro-5H-pyrrolo[1,2-a]imidazol-3-yl)benzo[d]thiazole] |  |  | 100 to 1000 nM | 100 to 1000 nM |
| Fc1cccc(-c2nc3n(c2-c2ccc4nccnc4c2)CCC3)c1 [Compound 196, 6-(2-(3-fluorophenyl)-6,7-dihydro-5H-pyrrolo[1,2-a]imidazol-3-yl)quinoxaline] |  |  | 100 to 1000 nM | > 1000 nM |
| Fc1ccccc1-c1nc2n(c1-c1ccc3[nH]ncc3c1)CCC2 [Compound 197, 5-(2-(2-fluorophenyl)-6,7-dihydro-5H-pyrrolo[1,2-a]imidazol-3-yl)-1H-indazole] | 100 to 1000 nM | > 1000 nM |  |  |
| Fc1ccccc1-c1nc2n(c1-c1ccc3cn[nH]c3c1)CCC2 [Compound 198, 6-(2-(2-fluorophenyl)-6,7-dihydro-5H-pyrrolo[1,2-a]imidazol-3-yl)-1H-indazole] | > 1000 nM | > 1000 nM |  |  |
| Fc1ccccc1-c1nc2n(c1-c1ccc3ncsc3c1)CCC2 [Compound 199, 6-(2-(2-fluorophenyl)-6,7-dihydro-5H-pyrrolo[1,2-a]imidazol-3-yl)benzo[d]thiazole] | 100 to 1000 nM | 100 to 1000 nM |  |  |
| Fc1ccccc1-c1nc2n(c1-c1ccc3nccnc3c1)CCC2 [Compound 200, 6-(2-(2-fluorophenyl)-6,7-dihydro-5H-pyrrolo[1,2-a]imidazol-3-yl)quinoxaline] | 100 to 1000 nM | > 1000 nM |  |  |
| Fc1ccc(-c2nc3n(c2-c2ccc4[nH]ncc4c2)CCC3)c(F)c1 [Compound 201, 5-(2-(2,4-difluorophenyl)-6,7-dihydro-5H-pyrrolo[1,2-a]imidazol-3-yl)-1H-indazole] | < 50 nM | 100 to 1000 nM |  |  |
| Fc1ccc(-c2nc3n(c2-c2ccc4cn[nH]c4c2)CCC3)c(F)c1 [Compound 202, 6-(2-(2,4-difluorophenyl)-6,7-dihydro-5H-pyrrolo[1,2-a]imidazol-3-yl)-1H-indazole] | 50 to 100 nM | 100 to 1000 nM |  |  |
| Fc1ccc(-c2nc3n(c2-c2ccc4ncsc4c2)CCC3)c(F)c1 [Compound 203, 6-(2-(2,4-difluorophenyl)-6,7-dihydro-5H-pyrrolo[1,2-a]imidazol-3-yl)benzo[d]thiazole] | < 50 nM | 100 to 1000 nM |  |  |
| Fc1ccc(-c2nc3n(c2-c2ccc4nccnc4c2)CCC3)c(F)c1 [Compound 204, 6-(2-(2,4-difluorophenyl)-6,7-dihydro-5H-pyrrolo[1,2-a]imidazol-3-yl)quinoxaline] | 100 to 1000 nM | 100 to 1000 nM |  |  |
| Fc1ccc(-c2nc3n(c2-c2ccc4[nH]ncc4c2)CCC3)cc1F [Compound 205, 5-(2-(3,4-difluorophenyl)-6,7-dihydro-5H-pyrrolo[1,2-a]imidazol-3-yl)-1H-indazole] | 100 to 1000 nM | 100 to 1000 nM |  |  |
| Fc1ccc(-c2nc3n(c2-c2ccc4[nH]ncc4c2)CCC3)c(F)c1F [Compound 225, 5-(2-(2,3,4-trifluorophenyl)-6,7-dihydro-5H-pyrrolo[1,2-a]imidazol-3-yl)-1H-indazole] |  |  | 100 to 1000 nM | 100 to 1000 nM |
| Fc1ccc(-c2nc3n(c2-c2ccc4ncsc4c2)CCC3)c(F)c1F [Compound 226, 6-(2-(2,3,4-trifluorophenyl)-6,7-dihydro-5H-pyrrolo[1,2-a]imidazol-3-yl)benzo[d]thiazole] |  |  | 100 to 1000 nM | 100 to 1000 nM |
